Experimental data taken from patent US8278278B2, “Cell proliferation reducing cancer specific PCNA peptides” (Indiana University Research and Technology Corporation, priority 2008, dated 2012).
Entries after “also recorded” stand apart in the source; their conditions may differ. Read-outs that look alike come from different tables or passages of the source. Non-standard residues stand in square brackets, D forms with d. Residues, ends and D or L forms follow the SMILES beside them. No end group written: not given here. *: point of attachment. FITC = O=C1OC2(c3ccc(O)cc3Oc3cc(O)ccc32)c2ccc(NC(=S)*)cc21

Legend:
[1] = test system: MCF 7 (breast cancer); experiment: Cell death by flow cytometry in malignant breast cells; assay type: cell-based; conditions: 50 μM, 48 hours
Protocol: The R9-caPeptide was evaluated for cytotoxic effects in non-malignant (MCF 10A) and malignant (MCF 7) breast cells (Table 6). The cells were treated with 50 μM R9-caPeptide for 48 hours and the extent of cell death was evaluated by flow cytometry. […] The significant level of cytotoxicity in breast cancer cells is likely due to enhanced binding interaction of caPeptide with specific DNA repair proteins in these cells, as indicated for example by the observed preferential binding of caPCNA for XPG protein, leading to an inhibition of DNA repair in these cells, and ultimately cell death.

[2] = test system: U937 monocytic lymphoma cells; experiment: Cytotoxicity/apoptosis of R9-linked caPCNA peptides in U937 cells by flow cytometry; assay type: cell-based; conditions: 24 hours; for cytotoxic activity / apoptosis: R9 up to 100 μM, caPeptide up to 200 μM; for % cancer cell death: 30 μM of peptide, flow cytometry
Protocol: First, it was tested whether or not the R9 sequence alone had any cytotoxic effect in U937 cells. The U937 cells were treated with up to 100 μM of the R9 sequence for 24 hours.
Once it was established that the R9 sequence promoted cellular uptake of the peptide, increasing amounts of R9-caPep were added to U937 cells to determine if the peptide's uptake would have any cytotoxic effect.
To verify that the cytotoxicity of the R9-caPep was due to the PCNA peptide sequence itself, a scrambled peptide using the same eight amino acids, R9-Scrambled, was prepared (Table 3).
The cancer associated epitope of PCNA is also part of the flexible IDCL region of PCNA. This region of PCNA is considered to have a disordered structure. Disordered regions in proteins are usually associated with protein-to-protein interaction sites. […] To determine which amino acids in the R9-caPep sequence are necessary for binding of the peptide to these proteins, peptide constructs were generated that mutated each amino acid individually to an alanine (Table 3). Each alanine mutant peptide of caPCNA was used to treat U937 cells for 24 hours. An amino acid that is important to protein binding would presumably show decreased cell cytotoxicity when it is substituted with an alanine. Those amino acids which are not critical for binding could be anticipated to show a cytotoxic level similar to that of the unsubstituted peptide. For a comparison of the potential cytotoxic effect of each of the alanine substituted R9-linked caPeptides, U937 cells were treated with 30 μM of peptide. […] It was observed that peptides containing an alanine substituted at position aa126 or aa133 show little cytotoxic activity and therefore were likely important for the peptide's activity.

[3] = test system: HCC1937 cells lacking BRCA1; experiment: MTT growth inhibition assay, HCC1937 cells lacking BRCA1; assay type: cell-based; conditions: for efficacy in MTT assay compared with the other peptides: HCC1937 and HCC1937+wild-type BRCA1 cells, 24 hours
Protocol: MTT [3-(4,5-dimethylthiazol-2-yl)-2,5-diphenyltetrazolium bromide] assays were conducted with caPeptides at a variety of time points both alone and in combination with a DNA damaging agent e.g., cisplatin in HCC1937 and HCC1937+wild-type BRCA1 cells. The MTT assay is based on the ability of a mitochondrial dehydrogenase enzyme from viable cells to cleave the tetrazolium rings of the pale yellow MTT dye and form dark blue formazan crystals. These formazan crystals are largely impermeable to cell membranes and thus accumulate within healthy cells. Solubilization of the cells by the addition of a detergent results in the liberation and solubilization of the crystals. The number of proliferating cells is directly proportional to the level of formazan product created. The color can then be quantified using a simple colorimetric assay. The results are read on a multiwall scanning spectrophotometer (ELISA reader). The peptides used in these experiments including caPeptide, Q131A ([…] (SEQ ID NO: 5)), and P129A ([…] (SEQ ID NO: 3)) were ordered and obtained from Anaspec (Fremont, Calif.). caPeptide was dissolved in sterile 1× PBS solution to create a 1.5 mM stock concentration. caPeptides with alanine substitutions (e.g., P129A (SEQ ID NO: 3) and Q131A (SEQ ID NO: 5)) were dissolved in sterile 1×PBS solution to create 1.0 mM stock solutions.
MTT assays: The efficacy of caPeptides were tested using the MTT assays: HCC1937 and HCC137+wildtype BRCA1 cells were grown in DMEM 1× (supplemented with 10% fetal bovine serum and 5% penicillin/streptomycin) and were plated at a densities of 5.5×10^3 or 7×10^3, respectively, in 96 well plates (100 μL total volume per well) and allowed to attach overnight in a 37° C. incubator (5% CO2). Then, caPeptide stock solution was diluted to final working concentrations in DMEM 1× (10% fetal bovine serum and 5% penicillin/streptomycin) of 150 μM, 100 μM, 75 μM, 50 μM, and 25 μM. Media was removed from cells and replaced with media containing caPeptide at various concentrations (200 μL total volume per well). Cells were cultured with caPeptide-containing media for 24, 48 or 72 hours. At the appropriate treatment timepoint, 20 μL MTT (5 mg/mL in PBS) reagent was added to each well and plates were incubated for an additional 4 hours. Media/dye solution was then aspirated and 200 μL DMSO was added to each well. Plates were rocked at room temperature for five minutes to dissolve crystals and transferred to an ELISA plate reader. Absorbance was measured at 550 nm. The extent to which caPeptides inhibited cell proliferation was calculated as a percentage of the absorbance in each well containing caPeptide relative to wells containing no caPeptide (negative control) for both HCC1937 and HCC1937+wild-type BRCA1 cells. […]

[4] = test system: HCC1937+wild-type BRCA1 cells; experiment: MTT growth inhibition assay, HCC1937+wild-type BRCA1 cells; assay type: cell-based
Protocol: As a genetically matched control, wild-type BRCA1 has been transduced into HCC1937 cells (referred to as HCC1937+wild-type BRCA1). HCC1937+wild-type BRCA1 cells were selected for maintenance of the vector using 1 μg/mL puromycin. All cells in these assays were used at passage numbers <25.
MTT [3-(4,5-dimethylthiazol-2-yl)-2,5-diphenyltetrazolium bromide] assays were conducted with caPeptides at a variety of time points both alone and in combination with a DNA damaging agent e.g., cisplatin in HCC1937 and HCC1937+wild-type BRCA1 cells. […] The color can then be quantified using a simple colorimetric assay. The results are read on a multiwall scanning spectrophotometer (ELISA reader). […]
MTT assays: The efficacy of caPeptides were tested using the MTT assays: HCC1937 and HCC137+wildtype BRCA1 cells were grown in DMEM 1× (supplemented with 10% fetal bovine serum and 5% penicillin/streptomycin) and were plated at a densities of 5.5×10^3 or 7×10^3, respectively, in 96 well plates (100 μL total volume per well) and allowed to attach overnight in a 37° C. incubator (5% CO2). […] Plates were rocked at room temperature for five minutes to dissolve crystals and transferred to an ELISA plate reader. Absorbance was measured at 550 nm. […]

[5] = test system: U937 cells; conditions: 100 nM of doxorubicin alone
[6] = test system: U937 cells; experiment: cells; conditions: Homo sapiens, U-937, 24 h
[7] = test system: U937 cells; experiment: Cellular uptake and nuclear localization by fluorescence microscopy; assay type: cell-based; conditions: 10 μM, 24 hours, DAPI overlay
Protocol: To test cellular uptake and nuclear localization of R9-caPep, an N-terminal fluorescein isothiocyanate (FITC) residue was attached to allow microscopic visualization of the peptide's cellular location. The U937 cells were treated with 10 μM of FITC-R9-caPep for 24 hours. The cells were then collected onto a poly-L-lysine coated slide by cytospin and mounted with a media containing the DNA staining dye 4′-6-Diamidino-2-phenylindole (DAPI), which complexes with double stranded DNA and indicates the location of the nucleus. A Leica DM500 fluorescent microscope was used to visualize the staining.

With CC[C@H](C)[C@H](NC(=O)CNC(=O)[C@H](CC(C)C)NC(=O)[C@H](CS)NC(=O)[C@H](CS)NC(=O)[C@@H](CCCNC(=N)N)NC(=O)[C@@H](CCCNC(=N)N)NC(=O)[C@@H](CCCNC(=N)N)NC(=O)[C@@H](CCCNC(=N)N)NC(=O)[C@@H](CCCNC(=N)N)NC(=O)[C@@H](CCCNC(=N)N)NC(=O)[C@@H](CCCNC(=N)N)NC(=O)[C@@H](CCCNC(=N)N)NC(=O)[C@H](N)CCCNC(=N)N)C(=O)N1CCC[C@H]1C(=O)N[C@@H](CCC(=O)O)C(=O)N[C@@H](CCC(N)=O)C(=O)N[C@@H](CCC(=O)O)C(=O)N[C@@H](Cc1ccc(O)cc1)C(=O)O [R9-caPep] the “cytotoxicity for malignant breast cells (MCF7) relative to non-malignant breast cells (MCF10A)” value [1] was “approximately five times more cytotoxic”.
For CC[C@H](C)[C@H](NC(=O)CNC(=O)[C@@H](N)CC(C)C)C(=O)N1CCC[C@H]1C(=O)N[C@@H](CCC(=O)O)C(=O)N[C@@H](CCC(N)=O)C(=O)N[C@@H](CCC(=O)O)C(=O)N[C@@H](Cc1ccc(O)cc1)C(=O)O [caPeptide] (H-LGIPEQEY-OH), the “cytotoxic activity / apoptosis” value [2] was “did not have any cytotoxic activity; also recorded: no increase in apoptosis”.
With N.N.[Cl][Pt][Cl] [cisplatin, reference compound] the IC50 ([3]; HCC1937 cells lacking BRCA1, with R9-PCNA peptide 60 μM, read-out: IC50 value for R9-PCNA peptide (60 μM)+cisplatin) was about 20 µM, the “sensitivity of the cells to cisplatin” value ([3]; HCC1937 cells, cisplatin alone) was “relatively resistant” and the “sensitivity of the cells to cisplatin” value ([4]; HCC1937+wild-type BRCA1 cells, cisplatin alone) was “relatively resistant”. It also gave an IC50 ([4]; HCC1937 cells with BRCA1, with R9-PCNA peptide 60 μM, read-out: IC50 value for R9-PCNA peptide (60 μM)+cisplatin) of about 100 µM.
COc1cccc2c1C(=O)c1c(O)c3c(c(O)c1C2=O)C[C@@](O)(C(=O)CO)C[C@@H]3O[C@H]1C[C@H](N)[C@H](O)[C@H](C)O1 [doxorubicin] gave a cell death [5] of 30%, an IC50 ([6]; read-out: IC50 of doxorubicin, U937 cells, 24 hours, doxorubicin alone) of about 0.14 µM and an IC50 ([6]; read-out: IC50 of doxorubicin, U937 cells, 24 hours, with 25 μM of R9-caPep) of about 0.11 µM.
With “FITC-RRRRRRRRRCCLGIPEQEY ({FITC}-[dR][dR][dR][dR][dR][dR][dR][dR][dR]CCLGIPEQEY; cysteine pairing not given here) [FITC-R9-caPep, R9-caPep with an N-terminal fluorescein isothiocyanate (FITC) residue]” the “cellular uptake and nuclear localization” value [7] was “internalized by the cells and was accessible to the nucleus”.
For LGIAEQEY [P129A], the “efficacy in MTT assay compared with the other peptides” value [3] was “enhanced efficacy in comparison to wild-type peptides”.
With LGIPEAEY [Q131A] the “efficacy in MTT assay compared with the other peptides” value [3] was “enhanced efficacy in comparison to wild-type peptides; also recorded: more effective of these peptides tested”.
For RRRRRRRRR [R9, reference compound], the “cytotoxic activity / apoptosis” value [2] was “did not promote apoptosis; also recorded: did not cause an increase apoptosis”.
RRRRRRRRRCCAGIPEQEY [A1-sub. Peptide] was tested, and the “% cancer cell death” value [2] was 8 ± 9%.
RRRRRRRRRCCLAIPEQEY [A2-sub. Peptide] was tested, and the “% cancer cell death” value [2] was 47 ± 13%.
For RRRRRRRRRCCLGAPEQEY [A3-sub. Peptide], the “% cancer cell death” value [2] was 21 ± 12%.
With RRRRRRRRRCCLGIAEQEY [A4-sub. Peptide] the “% cancer cell death” value [2] was 80 ± 7%.
With RRRRRRRRRCCLGIPAQEY [A5-sub. Peptide] the “% cancer cell death” value [2] was 45 ± 14%.
RRRRRRRRRCCLGIPEAEY [A6-sub. Peptide] was tested, and the “% cancer cell death” value [2] was 93 ± 7%.
For RRRRRRRRRCCLGIPEQAY [A7-sub. Peptide], the “% cancer cell death” value [2] was 88 ± 4%.
For RRRRRRRRRCCLGIPEQEA [A8-sub. Peptide], the “% cancer cell death” value [2] was 7 ± 6%.
